Results on two compounds are retold here after patent US20050026836A1, “Composition for the treatment of damaged tissue” (priority 1999, published 2005).

In test [1] the test system is circular full thickness lesions. Description: Normal wound healing in pigs, full thickness lesions. It counts as in vivo. The note with it: 0.3% w/v formulation in CMC hydrogel, 1 ml topically daily, pig. The procedure: The experiment was performed in 3 female SPF pigs (crossbreed of Danish country, Duroc and Yorkshire). At start of the acclimatisation period the body weight of the animals was about 30 kg. The lesions were established on day 1. The animals were anaesthetised with Stresnil® Vet. Janssen, Belgium (40 mg azaperone/ml, 1 ml/10 kg), and Atropin DAK, Denmark (1 mg atropine/ml, 0.05 ml/kg), given as a single intramuscular injection followed by i.v. injection of Hypnodil® Janssen, Belgium (50 mg metomidate/ml, 1-2 ml). Eight circular full thickness lesions (diameter 20 mm) were made on the prepared area, four on each side of the spine. The lesions were numbered 1 (most cranial) to 4 (most caudal) on the left side of the animal, and 5 (most cranial) to 8 (most caudal) on the right side of the animal. After surgery and daily thereafter, the test articles were applied as follows: The dosing volume of each dosing was 1 ml. The dressings were changed on a daily basis. Each lesion was observed daily. The outlines of the wound edge and the epithelial edge will be drawn on sterile transparent sheets, and the areas contained inside the edges were measured planimetrically. The measurement of areas was performed by Scan Beam […] processed to give group mean values and standard deviations where appropriate. Possible outliers were identified, too. Each variable was tested for normality by the Shapiro-Wilk method. In case of normal distribution, two-way analysis of variance was carried out for the variable with the factor: animal and treatment, and if significant difference were detected, possible intergroup differences were assessed using the least-squares means. Otherwise the possible intergroup differences were identified with Wilcoxon Rank-Sum test.

The target in test [2] is T1, catalytic domain human MMP-14 (Homo sapiens, UniProt P50281).
T1 construct: made in house
Description: MMP-14 fluorogenic inhibition assay. Type of test: biochemical. The note with it: read-out: Calculated Ki(nM) MMP-14. On the procedure:
(§1) All enzymes were pre-activated at 37° C. with aminophenylmercuric acetate (APMA) or trypsin before being made up to the final concentrations used in the assay. MMP-1 (30 nM) was activated with 0.93 mM APMA for 20 minutes, MMP-2 (30 nM) was activated with 1.32 mM APMA for 1 hour, MMP-3 (1010 nM) was activated with 1.81 mM APMA for 3 hours or heat activated at 55° C. for three hours, MMP-9 (100 nM) was activated with 2 mM APMA for 2 hours, human MMP-13 (100 nM) was activated with 2 mM APMA for 2 hours, and MMP-14 (900 nM) was activated with 0.9 ng/ml trypsin for 25 minutes, followed by the addition of 4.5 ng/ml trypsin inhibitor.
(§2) For MMP-1, the assay buffer used was 50 mM Tris, 200 mM NaCl, 5 mM CaCl2, 20 μM ZnCl2, 0.05% (w/v) Brij 35, pH 7.5. […] For MMP-13, the assay buffer used was 50 mM Tris, pH 7.5, 200 mM NaCl, 5 mM CaCl2, […] and 0.02% (w/v) Brij 35. For MMP-14, the assay buffer used was 50 mM Tris, 100 mM NaCl, 10 mM CaCl2, 0.25% (w/v) Brij 35, pH 7.5.
MMP-14 inhibition was assayed by incubating activated catalytic domain human MMP-14 at 1 nM in assay buffer with 10 μM Mca-Pro-Leu-Gly-Leu-Dpa-Ala-Arg-NH2 and six concentrations of inhibitor. The incubation was performed at 37° C. for 60 minutes.
(§3) The final assay concentrations of inhibitors used in the MMP-1 assays to determine Ki were 50, 40, 30, 20, 10 and 5 μM. For MMP-2, the final assay concentrations of inhibitors used were 1000, 800, 600, 400, 200 and 100 nM. For MMP-3, the final assay concentrations of inhibitors used were 5, 4, 3, 2, 1 and 0.5 nM. For MMP-9 and MMP-14, the final assay concentrations of inhibitors used were 5, 4, 3, 2, 1 and 0.5 μM.
All assays were carried out in a black 96-well plate with a final volume of 100 μl in each well. Inhibitors were dissolved in dimethylsulphoxide (DMSO) to 1 mM. […] For MMP-2, MMP-3, MMP-9 and MMP-14, fluorescence was read every 2 minutes at […] and 393 nm γem for 1 hour using a Fluorostar fluorimeter (BMG) with BIOLISE software. For MMP-1 assays, the filters used were 355 nm γex and 440 nm γem; fluorescence was read every 2 minutes for 1 hour. […]

Test [3] concerns the target T2, catalytic domain of human MMP-9 (Homo sapiens, UniProt P14780).
T2 sequence (P14780 with tags, fused parts or gaps DEL216-390 limits assumed): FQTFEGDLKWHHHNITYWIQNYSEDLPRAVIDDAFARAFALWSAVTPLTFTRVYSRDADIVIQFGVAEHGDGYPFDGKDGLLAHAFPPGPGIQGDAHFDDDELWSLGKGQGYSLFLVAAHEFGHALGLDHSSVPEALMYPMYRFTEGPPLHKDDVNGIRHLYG
Description: MMP-9 fluorogenic inhibition assay. Type of test: biochemical. Conditions: read-out: Calculated Ki(nM) MMP-9. On the procedure:
as §1, §2
MMP-2, MMP-3 and MMP-9 inhibition was assayed by incubating activated catalytic domain of human MMP-2, MMP-3 and MMP-9 at 1 nM in assay buffer with 5 μM substrate Mca-Arg-Pro-Lys-Pro-Tyr-Ala-Nva-Trp-Met-Lys(Dnp)-NH2, and six different concentrations of inhibitor. The incubation was performed at 37° C. for 60 minutes.
as §3
All assays were carried out in a black 96-well plate with a final volume of 100 μl in each well. […] For MMP-2, MMP-3, MMP-9 and MMP-14, fluorescence was read every 2 minutes at […] and 393 nm γem for 1 hour using a Fluorostar fluorimeter (BMG) with BIOLISE software. For MMP-1 assays, the filters used were 355 nm γex and 440 nm γem; fluorescence was read every 2 minutes for 1 hour. […]

Test [4] addresses T3, uPA (Homo sapiens, UniProt P00749). Description: biochemical. Conditions: read-out: Percentage inhibition of proteolysis. The procedure: (§4) The extent of proteolysis of the growth factors was assayed by incubating TGF-β2, VEGF, PDGF-BB and KGF-2 with the proteases uPA, plasmin, MMP-3 and MMP-13 in assay buffer (either uPA/plasmin buffer, 50 mM tris-HCl, pH 7.4 or MMP assay buffer, 100 mM Tris, 10 mM NaCl, 10 mM CaCl2, 0.05% (w/v) Brij 35, pH 7.5). […] The growth factors were added to the incubation mixture at a final concentration of […], unless otherwise stated.
(§5) The effects of uPA were determined by incubation at a typical final concentration of 25 μg/ml (1500 U/ml) with each growth factor. The effects of plasmin were determined at a typical final concentration of 0.1 mg/ml by incubation with the individual growth factors in assay buffer. MMP-3 and -13 were incubated at a typical final concentration of 10 nM with the growth factors in assay buffer. Dual protease assays carried out with uPA and MMP-3 together were performed in 100 mM Tris, […], 10 mM CaCl2, 0.05% (w/v) Brij 35, pH 7.5. All incubations were performed in siliconised tubes (Sigma Aldrich, UK).
The inhibitors used in these experiments were compound 9454, compound 9470 and compound 5214. These were dissolved in DMSO at a concentration of 10 mM. Typical final concentrations for these inhibitors were in the range of 100 μM to 10 nM. Aprotinin was dissolved in the Tris buffer at 10 mg/ml and used at a typical concentration of 10 μg/ml.
All assays were carried out at 37° C. and enzymes were pre-incubated for 15 minutes with or without inhibitor as appropriate, prior to addition of growth factors. After the addition of growth factor, the incubation mixtures were divided into aliquots in siliconised tubes for each time point used. Incubations were carried out over a time course typically of 24 hours, unless otherwise stated. They were stopped by the addition of an equal volume of 2×Novex reducing loading buffer (final concentration 1.09 M glycerol, 141 mM Tris-base, 106 mM Tris-HCl, 73 mM lithium dodecyl sulphate (LDS), 0.5 mM ethylenediaminetetraacetic acid, 0.22 mM Serva Blue G250, 0.175 mM Phenol Red, pH 8.5) and samples prepared for electrophoresis by incubating at 70° C. for 10 minutes.
LDS-PAGE was performed using the NOVEX Xcell II Mini-Cell gel apparatus (Groningen, Holland) using a variation on the method of Laemmli (1970). Equal volumes of samples were loaded onto NuPage 4-12% Bis-tris gels with molecular weight markers (SeeBlue Plus2 Pre-stained Standards). Molecular weight determination was performed by comparison of bands with markers of molecular weight 3, 6, 14, 17, 28, 38, 49, 62, 98 and 188 kDa. […]

A further test concerns the target T4, human tPA (Homo sapiens, UniProt P00750).
T4 construct: Human tPA (one chain) 10 μg/vial (Chromogenix, 821157-039/0); purchased Chromogenix 821157-039/0
Description: tPA chromogenic inhibition assay (S2288). Type of test: biochemical. The note with it: 100 μM compound. The procedure: The method for analysis of tPA inhibition is similar to that for uPA inhibition. The assay utilises final concentrations of tPA of 0.4 µg/ml with 0.1 mg/ml tPA stimulator, 0.4 mM S2288 (substrate) and various concentrations of inhibitors, made up in uPA assay buffer. Pre-incubation is carried out with compound, enzyme and enzyme stimulator, as for uPA, prior to the incubation with substrate. Incubation time is 60 minutes at performed at 37° C. Data analysis is identical to that described above for uPA, using a known Km for tPA of 250 μM.
The incubation was performed at 37° C. for 60 mins. Percentage inhibition was calculated.

Test [5] addresses T3, uPA. Description: biochemical. Conditions: for Ki: UPA. On the procedure: A pre-incubation of compound with enzyme is carried out for 15 minutes at 37° C., followed by substrate addition and further incubation for 30 minutes at the same temperature. The final assay volume is 200[…]1.
uPA (urokinase type plasminogen activator) inhibition was assayed by incubating human uPA at 33 IU/ml in 75 mM Tris, pH 8.1, 50 mM NaCl with 180 μM S2444 (substrate) and various concentrations of inhibitors. For the primary screen results, the incubation was performed at 37° C. for 30 minutes.
These assays were carried out in a 96-well plate. […] The incubation was performed after an initial pre-incubation at 37° C. for 15 mins and absorbance was read at 405 nm at 0 mins and at the end of the incubation on a […]ax microplate reader (Molecular Devices Corporation), using SOFTMaxPRO software.

The next test concerns the target T5, Plasmin (Homo sapiens, UniProt P00747).
T5 construct: Human plasmin, 2 mg/vial (Quadratech, 810665) was reconstituted to 1 mg/ml in buffer; purchased Quadratech 810665
Description: Plasmin chromogenic inhibition assay (Chromozym-PL). It counts as biochemical. The note with it: 100 μM compound. On the procedure:
Plasmin inhibition is assayed by incubating human plasmin at 0.7 μg/ml with 0.2 mM Chromozym-PL (substrate) and various concentrations of inhibitors in uPA assay buffer. Pre-incubation is carried out as for uPA and the incubation is performed at 37° C. for 30 mins.
The incubation was performed at 37° C. for 30 mins. Percentage inhibition was calculated.

Another test concerns uPA and MMP-3. Description: Inhibition of uPA and MMP-3-mediated KGF-2 degradation (dual protease assay). It counts as biochemical, human. The note with it: uPA and MMP-3 together / KGF-2; inhibitors used (100 μM), alone or in combination. On the procedure: as §4, §5
The inhibitors used in these experiments were compound 9454, compound 9470 and compound 5214. These were dissolved in DMSO at a concentration of 10 mM. Typical final concentrations for these inhibitors were in the range of 100 μM to 10 nM. Aprotinin was dissolved in the Tris buffer at 10 mg/ml and used at a typical concentration of 10 μg/ml. […]

The mark [6] stands for this setting: individual determinations, 100 µM.
[7] abbreviates: individual determinations, read-out: % inhibition at 100 μM.
Where [8] appears, read: mean ± sem, read-out: % inhibition at 100 μM Mean ± sem.

“And” between values parts separate entries of the source, which are not always exact repeats. Identical values can stand only once. Like-named read-outs stand apart in the source and are kept apart here.

T5 sequence (P00747 581-810 limits assumed): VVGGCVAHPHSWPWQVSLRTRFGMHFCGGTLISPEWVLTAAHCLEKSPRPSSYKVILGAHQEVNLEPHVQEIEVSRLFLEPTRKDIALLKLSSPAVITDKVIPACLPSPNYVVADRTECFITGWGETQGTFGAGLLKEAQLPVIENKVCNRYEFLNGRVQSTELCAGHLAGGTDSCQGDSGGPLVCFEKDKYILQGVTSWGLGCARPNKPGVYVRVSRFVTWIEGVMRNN
T5 sequence (P00747 97-580 partner limits assumed): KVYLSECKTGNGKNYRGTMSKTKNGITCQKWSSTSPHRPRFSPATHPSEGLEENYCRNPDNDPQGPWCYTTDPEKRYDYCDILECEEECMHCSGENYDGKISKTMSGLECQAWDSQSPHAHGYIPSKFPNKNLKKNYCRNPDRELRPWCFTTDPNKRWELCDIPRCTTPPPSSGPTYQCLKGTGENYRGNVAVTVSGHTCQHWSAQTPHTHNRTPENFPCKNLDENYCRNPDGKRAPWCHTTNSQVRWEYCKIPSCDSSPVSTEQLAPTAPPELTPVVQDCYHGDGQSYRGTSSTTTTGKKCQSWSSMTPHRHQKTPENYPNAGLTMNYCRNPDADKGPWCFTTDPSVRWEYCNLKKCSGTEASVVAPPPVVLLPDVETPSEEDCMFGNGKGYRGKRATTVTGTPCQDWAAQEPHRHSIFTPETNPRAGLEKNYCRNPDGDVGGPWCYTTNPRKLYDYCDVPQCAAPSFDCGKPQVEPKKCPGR
T4 sequence (P00750 36-562): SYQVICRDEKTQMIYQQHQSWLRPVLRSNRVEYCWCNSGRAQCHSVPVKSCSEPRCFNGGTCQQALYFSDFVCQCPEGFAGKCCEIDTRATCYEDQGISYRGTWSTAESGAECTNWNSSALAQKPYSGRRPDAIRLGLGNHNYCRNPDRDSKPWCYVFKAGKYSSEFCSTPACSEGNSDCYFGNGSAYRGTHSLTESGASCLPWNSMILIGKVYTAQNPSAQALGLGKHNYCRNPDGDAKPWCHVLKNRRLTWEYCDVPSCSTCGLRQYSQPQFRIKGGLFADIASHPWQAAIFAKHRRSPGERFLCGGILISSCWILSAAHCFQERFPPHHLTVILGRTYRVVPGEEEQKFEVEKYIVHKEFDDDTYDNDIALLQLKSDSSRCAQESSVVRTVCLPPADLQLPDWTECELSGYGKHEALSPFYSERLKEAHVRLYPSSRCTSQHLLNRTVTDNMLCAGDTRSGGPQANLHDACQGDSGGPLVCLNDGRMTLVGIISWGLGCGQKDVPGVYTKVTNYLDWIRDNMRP

Consider `CNC(=O)[C@@H](Cc1ccccc1)NC(=O)C(CC(C)C)[C@H](CSc1cccs1)C(=O)NO` (some centres unmarked) [compound 5719], for which the “Non-epithelialised area MEAN” value in test [1] (DAY 8) is reported as 294.0; in test [1] (DAY 9), 248.0; in test [1] (DAY 10), 210.1; in test [1] (DAY 11), 148.9. In addition, the inhibition constant (Ki) (in general, the equilibrium dissociation constant of an inhibitor or competing ligand from its target) in test [2] is 3.68 nM; in test [3], 0.47 nM.
Regarding `NC(N)=Nc1ncc(Cl)c2ccc(S(=O)(=O)N3CCCC3C(=O)O)cc12` (centres unmarked) [compound 5214], the inhibition (as a rule, the relative decrease from the control value, in per cent) at 0.1 µM at uPA [4] was found to be 17%. For the same compound, the inhibition at 1 µM on uPA [4] came to 76%. In addition, the inhibition at 10 µM at uPA [4] was found to be 83%. In addition, the inhibition at 100 µM at uPA [4] came out at 91%; at human tPA (setting [7]) it was 38%; at human tPA (setting [8]), 45 ± 3.61%; at Plasmin (setting [7]) it was 31%; at Plasmin (setting [8]) it was 29.8 ± 1.38%. Moreover, the % inhibition (usually the change of the read-out against control, counted positive when it falls) at 100 μM on human tPA (setting [6]) is 47% and 50%; on Plasmin (setting [6]) it was 33% and 28% and 27%. The inhibition constant Ki on uPA [5] (Calculated Ki (nM) Mean ± sem, mean ± sem) was 9.9 ± 0.76 nM; on uPA [5] (Calculated Ki (nM), individual determinations), 11 nM and 9.6 nM and 7.8 nM. Besides, the “Potency as inhibitor of uPA (in words)” value on uPA [5] (from Table 1) is “potent inhibitor of uPA”. Further, the “Percentage inhibition of proteolysis” value in the test on uPA and MMP-3 came to 38.6.
